Source: publication PMC5659129, “Determinants of the Inhibition of DprE1 and CYP2C9 by Antitubercular Thiophenes” (Angewandte Chemie (International Ed. in English), 2017)
In brackets after ≈: the same amount, converted by molar mass. Where two headings read alike, the source gives them in different places.

How the values were obtained:
Mtb WT = assay: microbe, parasite or virus in culture; type: cell-based, Mycobacterium tuberculosis; conditions: for MIC: Mycobacterium tuberculosis, 168 h
M. smegmatis DprE1 WT = M. smegmatis DprE1 WT (Mycolicibacterium smegmatis, UniProt A0R607); assay: biochemical
M. smegmatis DprE1 WT, sequence (A0R607 whole entry): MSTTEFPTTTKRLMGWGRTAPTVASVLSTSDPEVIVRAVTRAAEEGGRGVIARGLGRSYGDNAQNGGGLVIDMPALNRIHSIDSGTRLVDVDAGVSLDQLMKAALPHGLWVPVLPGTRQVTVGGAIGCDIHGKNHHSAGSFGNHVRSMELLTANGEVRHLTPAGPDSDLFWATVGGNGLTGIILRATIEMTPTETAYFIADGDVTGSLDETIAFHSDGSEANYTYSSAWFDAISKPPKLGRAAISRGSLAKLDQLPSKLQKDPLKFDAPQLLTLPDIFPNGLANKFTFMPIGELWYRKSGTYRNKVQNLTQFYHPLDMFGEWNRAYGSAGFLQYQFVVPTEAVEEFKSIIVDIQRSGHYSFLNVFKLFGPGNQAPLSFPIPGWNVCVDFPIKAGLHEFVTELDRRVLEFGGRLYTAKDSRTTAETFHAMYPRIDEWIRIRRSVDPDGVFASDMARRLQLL

CYP2C9 [1] = target: T1, CYP2C9 (Homo sapiens, UniProt P11712); assay: in vitro; conditions: microsomes, pH 7.4
T1 sequence (P11712 whole entry): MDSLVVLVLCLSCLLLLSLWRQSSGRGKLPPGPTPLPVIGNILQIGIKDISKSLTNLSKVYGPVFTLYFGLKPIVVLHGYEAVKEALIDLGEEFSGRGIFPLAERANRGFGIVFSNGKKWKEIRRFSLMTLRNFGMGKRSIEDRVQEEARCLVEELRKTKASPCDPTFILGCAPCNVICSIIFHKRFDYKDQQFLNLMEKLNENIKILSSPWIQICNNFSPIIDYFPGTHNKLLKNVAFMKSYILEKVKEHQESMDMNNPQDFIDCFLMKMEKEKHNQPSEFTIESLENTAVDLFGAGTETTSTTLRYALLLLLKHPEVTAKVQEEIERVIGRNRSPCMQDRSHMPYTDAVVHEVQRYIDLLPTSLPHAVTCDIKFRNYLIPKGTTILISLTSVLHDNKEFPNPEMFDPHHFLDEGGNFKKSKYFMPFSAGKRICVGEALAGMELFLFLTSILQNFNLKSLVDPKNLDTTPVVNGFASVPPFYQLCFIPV

CYP2C9 [2] = target: T1, CYP2C9; conditions: for IC50 ratio (CYP2C9 over DprE1): selectivity
Mtb Erdman [3] = type: in vivo, BALB/c mouse; conditions: 3 weeks, acute phase
Vero cell line = assay: In vitro cytotoxicity assay (MTT), Vero; conditions: up to a concentration of 100 μM
Protocol: In vitro cytotoxicity assay. Vero epithelial cells (from African green monkey; ATCC
CCL-81) were cultured in Dulbecco’s modified Eagle’s medium (DMEM) supplemented
with 10% fetal bovine serum (FBS) and maintained in a humidified incubator (37°C in
5% CO2). Cells were dislodged with a cell scraper, collected by centrifugation,
resuspended in fresh medium at 10^6 cells/ml, dispensed into 96-well microtiter plates
(100 ml/well), and incubated for 18 h at 37°C. Two-fold serial dilutions of test
compounds in DMEM with FBS were subsequently added, and cells were incubated for
another 72 h. In triplicate studies, the cytopathic effects of compounds were evaluated
colorimetrically by using the 3-(4, 5- dimethyl-2-thiazolyl)-2, 5-diphenyl-2H-tetrazolium
bromide (MTT) cell proliferation assay (ATCC).

[4] = Mini-Ames mutagenicity test
CYP1A2 = CYP1A2 (Homo sapiens, UniProt P05177); conditions: microsomes
CYP1A2, sequence (P05177 whole entry): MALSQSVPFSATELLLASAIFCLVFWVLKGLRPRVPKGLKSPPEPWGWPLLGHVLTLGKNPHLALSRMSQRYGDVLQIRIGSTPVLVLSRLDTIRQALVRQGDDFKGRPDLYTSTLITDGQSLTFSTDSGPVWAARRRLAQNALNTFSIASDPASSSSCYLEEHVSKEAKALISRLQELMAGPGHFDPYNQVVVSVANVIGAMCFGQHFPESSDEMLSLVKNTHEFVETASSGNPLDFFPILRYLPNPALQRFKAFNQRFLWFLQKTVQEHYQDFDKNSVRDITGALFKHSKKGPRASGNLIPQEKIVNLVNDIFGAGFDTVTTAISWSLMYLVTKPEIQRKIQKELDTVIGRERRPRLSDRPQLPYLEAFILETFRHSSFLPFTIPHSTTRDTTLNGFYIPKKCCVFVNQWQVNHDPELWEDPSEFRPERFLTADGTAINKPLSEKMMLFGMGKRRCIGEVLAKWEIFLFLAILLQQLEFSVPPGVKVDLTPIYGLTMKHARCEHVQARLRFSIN

CYP2D6 = CYP2D6 (Homo sapiens, UniProt P10635); conditions: microsomes
CYP2D6, sequence (P10635 whole entry): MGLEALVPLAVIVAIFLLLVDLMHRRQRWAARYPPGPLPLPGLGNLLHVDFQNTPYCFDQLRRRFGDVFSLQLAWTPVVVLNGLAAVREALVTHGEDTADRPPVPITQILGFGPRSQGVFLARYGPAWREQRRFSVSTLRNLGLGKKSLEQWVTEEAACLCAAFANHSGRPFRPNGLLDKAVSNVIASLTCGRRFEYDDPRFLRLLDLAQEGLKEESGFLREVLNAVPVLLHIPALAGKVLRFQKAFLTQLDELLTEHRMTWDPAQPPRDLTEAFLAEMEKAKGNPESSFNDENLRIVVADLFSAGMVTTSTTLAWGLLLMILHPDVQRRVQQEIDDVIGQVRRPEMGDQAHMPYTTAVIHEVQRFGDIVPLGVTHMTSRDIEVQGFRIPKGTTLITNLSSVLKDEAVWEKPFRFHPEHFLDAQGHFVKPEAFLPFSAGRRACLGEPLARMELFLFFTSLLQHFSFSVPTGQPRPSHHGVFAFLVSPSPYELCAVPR

Mtb Erdman [5] = type: in vivo, BALB/c mouse; conditions: 200 mg kg−1, oral, 4 weeks, chronic phase
hERG potassium channel = hERG potassium channel (Homo sapiens, UniProt Q12809); assay: cell-based
hERG potassium channel, sequence (Q12809 whole entry): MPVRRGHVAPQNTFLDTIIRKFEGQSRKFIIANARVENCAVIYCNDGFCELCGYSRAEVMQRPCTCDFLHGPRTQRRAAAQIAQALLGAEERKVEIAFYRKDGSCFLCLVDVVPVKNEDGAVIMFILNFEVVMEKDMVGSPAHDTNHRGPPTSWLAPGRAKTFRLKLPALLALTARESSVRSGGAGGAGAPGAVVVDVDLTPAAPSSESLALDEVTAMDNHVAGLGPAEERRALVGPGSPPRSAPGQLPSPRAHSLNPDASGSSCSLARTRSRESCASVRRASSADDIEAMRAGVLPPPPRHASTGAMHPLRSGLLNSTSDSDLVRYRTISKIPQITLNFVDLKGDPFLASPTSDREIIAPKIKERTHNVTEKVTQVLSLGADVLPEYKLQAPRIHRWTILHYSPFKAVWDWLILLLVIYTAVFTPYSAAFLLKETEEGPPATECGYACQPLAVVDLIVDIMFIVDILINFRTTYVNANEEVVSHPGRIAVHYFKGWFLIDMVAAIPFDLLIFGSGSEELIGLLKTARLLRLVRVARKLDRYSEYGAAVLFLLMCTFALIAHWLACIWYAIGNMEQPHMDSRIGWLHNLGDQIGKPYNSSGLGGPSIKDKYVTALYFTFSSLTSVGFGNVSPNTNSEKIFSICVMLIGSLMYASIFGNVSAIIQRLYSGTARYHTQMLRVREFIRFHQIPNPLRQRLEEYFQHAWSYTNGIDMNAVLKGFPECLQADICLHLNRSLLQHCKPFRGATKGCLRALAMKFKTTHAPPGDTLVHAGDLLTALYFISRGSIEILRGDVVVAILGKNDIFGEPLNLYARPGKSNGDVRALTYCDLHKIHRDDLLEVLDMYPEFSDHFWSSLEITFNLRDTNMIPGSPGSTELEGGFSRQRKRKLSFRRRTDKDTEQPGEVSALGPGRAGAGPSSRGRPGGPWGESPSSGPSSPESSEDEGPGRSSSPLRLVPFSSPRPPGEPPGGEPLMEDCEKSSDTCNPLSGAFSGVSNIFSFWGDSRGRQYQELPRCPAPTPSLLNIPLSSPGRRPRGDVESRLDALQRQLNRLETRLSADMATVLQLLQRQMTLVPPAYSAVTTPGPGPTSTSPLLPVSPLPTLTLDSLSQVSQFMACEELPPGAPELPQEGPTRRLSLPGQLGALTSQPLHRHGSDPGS

CYP3A4 = CYP3A4 (Homo sapiens, UniProt P08684); conditions: microsomes
CYP3A4, sequence (P08684 whole entry): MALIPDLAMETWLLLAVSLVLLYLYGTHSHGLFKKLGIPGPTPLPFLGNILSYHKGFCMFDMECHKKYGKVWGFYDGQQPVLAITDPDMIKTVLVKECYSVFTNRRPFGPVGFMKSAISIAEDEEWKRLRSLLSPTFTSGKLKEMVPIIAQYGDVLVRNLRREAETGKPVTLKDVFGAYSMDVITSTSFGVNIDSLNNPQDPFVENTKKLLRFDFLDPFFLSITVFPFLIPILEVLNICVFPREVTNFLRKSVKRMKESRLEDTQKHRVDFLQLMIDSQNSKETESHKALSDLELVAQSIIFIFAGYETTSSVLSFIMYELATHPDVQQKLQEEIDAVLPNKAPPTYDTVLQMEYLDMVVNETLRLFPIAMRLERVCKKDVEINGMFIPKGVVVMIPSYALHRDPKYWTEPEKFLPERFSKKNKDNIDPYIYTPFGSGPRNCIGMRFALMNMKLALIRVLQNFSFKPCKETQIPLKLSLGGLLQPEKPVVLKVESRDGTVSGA

HepG2 cell line = assay: In vitro cytotoxicity assay, HepG2; conditions: up to a concentration of 100 μM
CYP2C19 = CYP2C19 (Homo sapiens, UniProt P33261); conditions: microsomes
CYP2C19, sequence (P33261 whole entry): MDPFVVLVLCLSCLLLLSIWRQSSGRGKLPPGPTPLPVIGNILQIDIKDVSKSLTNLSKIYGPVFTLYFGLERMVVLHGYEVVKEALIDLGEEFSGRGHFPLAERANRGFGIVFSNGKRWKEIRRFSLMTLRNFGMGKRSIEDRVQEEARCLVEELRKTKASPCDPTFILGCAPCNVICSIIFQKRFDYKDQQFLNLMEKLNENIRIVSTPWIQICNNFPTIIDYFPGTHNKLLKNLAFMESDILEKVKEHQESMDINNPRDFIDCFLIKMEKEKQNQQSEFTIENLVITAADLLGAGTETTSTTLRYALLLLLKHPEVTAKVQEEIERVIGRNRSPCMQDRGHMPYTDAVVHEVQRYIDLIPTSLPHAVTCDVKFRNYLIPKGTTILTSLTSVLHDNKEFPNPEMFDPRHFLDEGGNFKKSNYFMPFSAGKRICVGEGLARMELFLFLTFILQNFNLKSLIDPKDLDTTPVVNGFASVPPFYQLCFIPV

CYP2C9 [6] = target: T1, CYP2C9; assay: biochemical
[7] = MABA, 7 days, 90% reduction in fluorescence

In the case of `Cc1ccnc(NC(=O)c2ccsc2NC(=O)c2nc3cnccc3s2)n1` [TCA787], the MIC (Mtb WT; [7]) is reported as 0.44 ± 0.12 µM (≈ 0.174 µg/mL) and the IC50 (M. smegmatis DprE1 WT; M. smegmatis DprE1, Table 1, read-out: IC50 DprE1 WT) is reported as 96 ± 38 nM.
In the case of `CCOC(=O)NC(=O)c1cc(F)sc1NC(=O)c1nc2ccccc2s1` [TCA481], the “more potent than TCA1 based on MIC” value (Mtb WT; MIC relative to TCA1) is reported as 5 fold and the MIC (Mtb WT; [7]) is reported as 0.046 ± 0.0025 µM (≈ 0.0181 µg/mL).
In the case of `CCOC(=O)NC(=O)c1ccsc1NC(=O)c1nc2ccccc2s1` [TCA1], the MIC (Mtb WT; [7]) is reported as 0.23 ± 0.012 µM (≈ 0.0863 µg/mL).
For `CCOC(=O)NC(=O)c1ccsc1NC(=O)c1ccn2cnnc2c1` [TCA582], the IC50 (CYP2C9 [1]) was 1830 nM and the “IC50 ratio (CYP2C9 over DprE1)” value (CYP2C9 [2]) was 33.
In the case of `CCOC(=O)NC(=O)c1ccsc1NC(=O)c1nc2cnccc2s1` [TCA007], the “reduction of bacterial load in lung” value (Mtb Erdman [3]; 50 mg kg−1, oral) is reported as 1.7 log10 CFU, the “reduction of bacterial load in lung” value (Mtb Erdman [3]; 100 mg kg−1, oral) is reported as 2.3 log10 CFU and the “cytotoxicity against Vero” value (Vero cell line) is reported as “not cytotoxic”. For the same compound, the genetic toxicity [4] was “no genetic toxicity”, the “inhibition of CYP1A2” value (CYP1A2) was “no inhibition” and the “inhibition of CYP2D6” value (CYP2D6) was “no inhibition”. For the same compound, the “inhibitory effect for CYP2C9” value (CYP2C9 [2]; microsomes) was “strong inhibitory effect”, the MIC (Mtb WT; [7]) was 0.089 ± 0.0066 µM (≈ 0.0335 µg/mL) and the “reduction of CFU in mouse lungs” value (Mtb Erdman [5]) was over 1.7 log10 CFU. The IC50 (hERG potassium channel) was over 30000 nM, the “inhibition of CYP3A4” value (CYP3A4) was “no inhibition” and the “cytotoxicity against HepG2” value (HepG2 cell line) was “not cytotoxic”. For the same compound, the “inhibition of CYP2C19” value (CYP2C19) was “no inhibition”.
In the case of `O=C(Nc1sccc1C(=O)Nc1ncccn1)c1nc2cnccc2s1` [TCA020], the “MIC WT” value (Mtb WT; [7]) is reported as 2.5 ± 0.48 µM (≈ 0.956 µg/mL) and the MIC (Mtb WT; [7]) is reported as 2.5 µM (≈ 0.956 µg/mL).
For `Cc1ccnc(NC(=O)c2ccsc2NC(=O)c2ccn3cnnc3c2)n1` [TCA711], the IC50 (CYP2C9 [6]) was over 50000 nM, the “IC50 ratio (CYP2C9 over DprE1)” value (CYP2C9 [2]) was 1515 and the IC50 (M. smegmatis DprE1 WT; Figure 4D, read-out: DprE1 IC50) was 30 nM.
